The values that follow come from patent US11872226B2, “N-benzyl-2-phenoxybenzamide derivatives as prostaglandin E2 (PGE2) receptors modulators” (MEDIBIOFARMA, S.L., priority 2019, dated 2024).

Experiment [1] addresses T1, human EP2 receptor (Homo sapiens, UniProt P43116).
T1 construct: purchased Millipore HTS185M
The experiment is described as follows: Competition binding in human EP2 receptor. The conditions noted are these: [3H]-Prostaglandin E2 competition, membranes from EP2 cell line. The protocol: (§1) The compounds of the present invention were assayed for binding at human EP1, EP2, EP3 and EP4 receptors and were tested at several concentrations for IC50 determination.
Competition Binding in Human EP2 Receptor:
Prostaglandin EP2 receptor competition binding experiments were carried out in a polypropylene 96-well microplate plate with binding buffer (Hepes 50 mM, CaCl2 1 mM, MgCl2 5 mM, pH=7.4). In each well was incubated 10 μg of membranes from EP2 cell line (Millipore HTS185M, protein concentration=2000 μg/ml), 7.5 nM [3H]-Prostaglandin E2 (169.8 Ci/mmol, 0.1 mCi/ml, Perkin Elmer NET428250UC) and compounds studied and standard. Non-specific binding was determined in the presence of PGE2 200 μM (Cayman 14010). The reaction mixture (Vt: 250 μl/well) was incubated at 25° C. for 90 min, 200 μL was transferred to GF/C 96-well plate (Millipore, Madrid, Spain) after was filtered and washed four times with 250 μl wash buffer (Hepes 50 mM, NaCl 500 mM, pH=7.4), before measuring in a microplate beta scintillation counter (Microbeta Trilux, Perkin Elmer, Madrid, Spain). (Wilson et al., Br J Pharmacol 2006; 148:326-339).
(§2) The inhibition constants (Ki) were calculated using the Cheng Prusoff equation
(§3) [formula] where L=concentration of radioligand in the assay, and KD=affinity of the radioligand for the receptor. A scatchard plot is used to determine the KD.

The target in experiment [2] is T2, human EP4 receptor (Homo sapiens, UniProt P35408).
T2 construct: expressed in transfected cells; host or cells: HEK-EP4 cell line; membranes prepared in house
T2 sequence (P35408 whole entry): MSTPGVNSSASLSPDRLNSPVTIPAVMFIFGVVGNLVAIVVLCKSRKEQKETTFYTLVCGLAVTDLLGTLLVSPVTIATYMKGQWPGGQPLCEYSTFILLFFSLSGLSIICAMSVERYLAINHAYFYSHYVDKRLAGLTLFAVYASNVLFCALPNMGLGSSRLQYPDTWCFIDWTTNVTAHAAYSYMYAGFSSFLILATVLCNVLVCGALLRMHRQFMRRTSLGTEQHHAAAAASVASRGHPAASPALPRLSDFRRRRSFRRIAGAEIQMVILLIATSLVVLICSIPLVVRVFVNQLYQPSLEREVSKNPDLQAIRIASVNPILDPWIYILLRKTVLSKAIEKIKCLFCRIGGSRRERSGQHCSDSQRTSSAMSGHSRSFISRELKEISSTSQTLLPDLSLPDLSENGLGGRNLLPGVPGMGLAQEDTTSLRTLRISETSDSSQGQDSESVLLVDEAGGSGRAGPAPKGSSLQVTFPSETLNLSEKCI
The experiment is described as follows: Competition binding in human EP4 receptor. As to conditions: [3H]-Prostaglandin E2 competition, membranes from HEK-EP4 cell line. The protocol: as §1
Competition Binding in Human EP4 Receptor:
Prostaglandin EP4 receptor competition binding experiments were carried out in a multiscreen GF/B 96-well plate (Millipore, Madrid, Spain) pretreated with binding buffer (Mes 25 mM, EDTA 1 mM, MgCl2 10 mM, pH=6.0). In each well was incubated 35 μg of membranes from HEK-EP4 cell line and prepared in our laboratory (Lot: A003/27-04-2011, protein concentration=2803 μg/ml), 1 nM [3H]-Prostaglandin E2 (169.8 Ci/mmol, 0.1 mCi/ml, Perkin Elmer NET428250UC) and compounds studied and standard. Non-specific binding was determined in the presence of PGE2 10 μM (Cayman 14010). The reaction mixture (Vt: 250 μl/well) was incubated at 25° C. for 120 min, 200 μL was transferred to GF/B 96-well plate (Millipore, Madrid, Spain) after was filtered and washed six times with 250 μl wash buffer (Mes 25 mM, BSA 0.01%, pH=6.0), before measuring in a microplate beta scintillation counter (Microbeta Trilux, Perkin Elmer, Madrid, Spain). (Abramovitz et al., Biochim Biophys Acta 2000; 1483:285-293).
as §2, §3

Each structure is given as a SMILES string.

T1 sequence (P43116 whole entry): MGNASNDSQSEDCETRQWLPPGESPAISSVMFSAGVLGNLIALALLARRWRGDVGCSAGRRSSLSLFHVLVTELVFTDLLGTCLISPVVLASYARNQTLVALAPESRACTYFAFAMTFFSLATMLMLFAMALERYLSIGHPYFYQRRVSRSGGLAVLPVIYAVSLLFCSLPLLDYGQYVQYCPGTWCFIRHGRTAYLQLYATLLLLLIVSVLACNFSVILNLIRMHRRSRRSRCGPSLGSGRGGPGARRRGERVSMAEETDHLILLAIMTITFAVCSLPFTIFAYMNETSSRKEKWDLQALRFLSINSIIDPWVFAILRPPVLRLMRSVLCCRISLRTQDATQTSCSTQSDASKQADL

As to `O=C(O)c1ccc(CNC(=O)c2cc(-c3ccncc3)ccc2Oc2ccc(F)cc2)cc1` [Example 1, 4-((2-(4-fluorophenoxy)-5-(pyridin-4-yl)benzamido)methyl)benzoic acid], the Ki is no less than 10000 nM in experiment [1] and less than 100 nM in experiment [2].
Take `O=C(O)c1ccc(CNC(=O)c2cc(-c3ccccc3)ccc2Oc2ccc(F)cc2)cc1` [Example 2, 4-((4-(4-fluorophenoxy)-[1,1′-biphenyl]-3-carboxamido)methyl)benzoic acid]: the Ki in experiment [1] was no less than 10000 nM; in experiment [2] it was less than 100 nM.
Take `O=C(O)c1ccc(CNC(=O)c2cc(-c3ccc(Cl)cc3)ccc2Oc2ccc(F)cc2)cc1` [Example 3, 4-((4′-chloro-4-(4-fluorophenoxy)-[1,1′-biphenyl]-3-carboxamido)methyl) benzoic acid]: the Ki in experiment [1] is no less than 10000 nM; in experiment [2], less than 100 nM.
The matching figures for `O=C(O)c1ccc(CNC(=O)c2cc(-c3ccc(F)cc3)ccc2Oc2ccc(F)cc2)cc1` [Example 4, 4-((4′-fluoro-4-(4-fluorophenoxy)-[1,1′-biphenyl]-3-carboxamido)methyl) benzoic acid]: less than 100 nM and less than 100 nM.
The matching figures for `O=C(O)c1ccc(CNC(=O)c2cc(-c3cccc(F)c3)ccc2Oc2ccc(F)cc2)cc1` [Example 5, 4-((3′-fluoro-4-(4-fluorophenoxy)-[1,1′-biphenyl]-3-carboxamido)methyl) benzoic acid]: less than 100 nM and less than 100 nM.
With `O=C(O)c1ccc(CNC(=O)c2cc(-c3ccccc3F)ccc2Oc2ccc(F)cc2)cc1` [Example 6, 4-((2′-fluoro-4-(4-fluorophenoxy)-[1,1′-biphenyl]-3-carboxamido)methyl) benzoic acid], the Ki in experiment [1] is 1000 to 10000 nM; in experiment [2], less than 100 nM.
As to `N#Cc1ccc(-c2ccc(Oc3ccc(F)cc3)c(C(=O)NCc3ccc(C(=O)O)cc3)c2)cc1` [Example 7, 4-((4′-cyano-4-(4-fluorophenoxy)-[1,1′-biphenyl]-3-carboxamido)methyl) benzoic acid], the Ki in experiment [1] is 1000 to 10000 nM; in experiment [2], less than 100 nM.
On to `N#Cc1cccc(-c2ccc(Oc3ccc(F)cc3)c(C(=O)NCc3ccc(C(=O)O)cc3)c2)c1` [Example 8, 4-((3′-cyano-4-(4-fluorophenoxy)-[1,1′-biphenyl]-3-carboxamido)methyl) benzoic acid], for which the Ki in experiment [1] and in experiment [2] was less than 100 nM each time.
For the compound `O=C(O)c1ccc(CNC(=O)c2cc(-c3ccncc3F)ccc2Oc2ccc(F)cc2)cc1` [Example 9, 4-((2-(4-fluorophenoxy)-5-(3-fluoropyridin-4-yl)benzamido)methyl)benzoic acid], the Ki in experiment [1] is 1000 to 10000 nM; in experiment [2], less than 100 nM.
As for `O=C(O)c1ccc(CNC(=O)c2cc(-c3cccnc3)ccc2Oc2ccc(F)cc2)cc1` [Example 10, 4-((2-(4-fluorophenoxy)-5-(pyridin-3-yl)benzamido)methyl)benzoic acid], the Ki in experiment [1] is 1000 to 10000 nM; in experiment [2], less than 100 nM.
Turning to `O=C(O)c1ccc(CNC(=O)c2cc(-c3ccncc3Cl)ccc2Oc2ccc(F)cc2)cc1` [Example 11, 4-((2-(4-fluorophenoxy)-5-(3-chloropyridin-4-yl)benzamido)methyl)benzoic acid], the Ki in experiment [1] was no less than 10000 nM; in experiment [2], 100 to 1000 nM.
For `O=C(O)c1ccc(CNC(=O)c2cc(-c3cncnc3)ccc2Oc2ccc(F)cc2)cc1` [Example 12, 4-((2-(4-fluorophenoxy)-5-(pyrimidin-5-yl)benzamido)methyl)benzoic acid], the Ki in experiment [1] is no less than 10000 nM; in experiment [2], 100 to 1000 nM.
In the case of `O=C(O)c1ccc(CNC(=O)c2cc(-c3ccc(F)c(F)c3)ccc2Oc2ccc(F)cc2)cc1` [Example 13, 4-((3′,4′-difluoro-4-(4-fluorophenoxy)-[1,1′-biphenyl]-3-carboxamido)methyl)benzoic acid], the figures for the Ki in experiment [1] and in experiment [2] were less than 100 nM and 100 to 1000 nM, respectively.
As for `O=C(O)c1ccc(CNC(=O)c2cc(-c3ccc(C(F)(F)F)cc3)ccc2Oc2ccc(F)cc2)cc1` [Example 14, 4-((4-(4-fluorophenoxy)-4′-(trifluoromethyl)-[1,1′-biphenyl]-3-carboxamido)methyl)benzoic acid], the Ki in experiment [1] fell in the range of 100 to 1000 nM; in experiment [2], 1000 to 10000 nM.
`O=C(O)c1ccc(CNC(=O)c2cc(-c3cccc(C(F)(F)F)c3)ccc2Oc2ccc(F)cc2)cc1` [Example 15, 4-((4-(4-fluorophenoxy)-3′-(trifluoromethyl)-[1,1′-biphenyl]-3-carboxamido)methyl)benzoic acid]: the Ki in experiment [1] and in experiment [2] was less than 100 nM throughout.
Regarding `O=C(O)c1ccc(CNC(=O)c2cc(-c3cccs3)ccc2Oc2ccc(F)cc2)cc1` [Example 18, 4-((2-(4-fluorophenoxy)-5-(thiophen-2-yl)benzamido)methyl)benzoic acid], the figures for the Ki in experiment [1] and in experiment [2] were 1000 to 10000 nM and less than 100 nM, respectively.
The matching figures for `O=C(O)c1ccc(CNC(=O)c2cc(-c3cc(F)cc(F)c3)ccc2Oc2ccc(F)cc2)cc1` [Example 19, 4-((3′,5′-difluoro-4-(4-fluorophenoxy)-[1,1′-biphenyl]-3-carboxamido)methyl)benzoic acid]: less than 100 nM and less than 100 nM.
Take `O=C(O)c1ccc(CNC(=O)c2cc(-c3cccc(Cl)c3)ccc2Oc2ccc(F)cc2)cc1` [Example 20, 4-((3′-chloro-4-(4-fluorophenoxy)-[1,1′-biphenyl]-3-carboxamido)methyl) benzoic acid]: the Ki in experiment [1] was 1000 to 10000 nM; in experiment [2], less than 100 nM.
Consider `O=C(O)c1ccc(CNC(=O)c2cc(-c3cc(F)cc(C(F)(F)F)c3)ccc2Oc2ccc(F)cc2)cc1` [Example 21, 4-((3′-fluoro-4-(4-fluorophenoxy)-5′-(trifluoromethyl)-[1,1′-biphenyl]-3-carboxamido)methyl)benzoic acid], for which the inhibition constant (Ki) in experiment [1] and in experiment [2] was less than 100 nM each time.
For `O=C(O)c1ccc(CNC(=O)c2cc(-c3cccc(-c4ccncc4)c3)ccc2Oc2ccc(F)cc2)cc1` [Example 26, 4-((4-(4-fluorophenoxy)-3′-(pyridin-4-yl)-[1,1′-biphenyl]-3-ylcarboxamido)methyl)benzoic acid], the inhibitory constant (Ki) in experiment [1] is no less than 10000 nM; in experiment [2], less than 100 nM.
For the compound `NC(=O)c1ccc(-c2ccc(Oc3ccc(F)cc3)c(C(=O)NCc3ccc(C(=O)O)cc3)c2)o1` [Example 27, 4-((5-(5-carbamoylfuran-2-yl)-2-(4-fluorophenoxy)benzamido)methyl) benzoic acid], the Ki in experiment [1] and in experiment [2] was 1000 to 10000 nM each time.
Regarding `O=C(O)c1ccc(CNC(=O)c2cc(-c3cccc(C(F)(F)F)c3)ccc2Oc2ccc(F)cc2)c(F)c1` [Example 28, 3-fluoro-4-((4-(4-fluorophenoxy)-3′-(trifluoromethyl)-[1,1′-biphenyl]-3-ylcarboxamido)methyl)benzoic acid], the Ki was 1000 to 10000 nM in experiment [1] and less than 100 nM in experiment [2].
In the case of `C[C@@H](NC(=O)c1cc(-c2cccc(C(F)(F)F)c2)ccc1Oc1ccc(F)cc1)c1ccc(C(=O)O)cc1` [Example 29, (R)-4-(1-(4-(4-fluorophenoxy)-3′-(trifluoromethyl)-[1,1′-biphenyl]-3-carboxamido)ethyl)benzoic acid], the Ki was 1000 to 10000 nM in experiment [1] and less than 100 nM in experiment [2].
The matching figures for `O=C(O)c1ccc(C2(NC(=O)c3cc(-c4cccc(C(F)(F)F)c4)ccc3Oc3ccc(F)cc3)CC2)cc1` [Example 30, 4-(1-(4-(4-fluorophenoxy)-3′-(trifluoromethyl)-[1,1′-biphenyl]-3-carboxamido)cyclopropyl)benzoic acid]: 1000 to 10000 nM and less than 100 nM.
In the case of `N#Cc1cc(F)cc(-c2ccc(Oc3ccc(F)cc3)c(C(=O)NCc3ccc(C(=O)O)cc3)c2)c1` [Example 31, 4-((3′-fluoro-5′-cyano-4-(4-fluorophenoxy)-[1,1′-biphenyl]-3-carboxamido)methyl)benzoic acid], the Ki in experiment [1] is 1000 to 10000 nM; in experiment [2], less than 100 nM.
The matching figures for `N#Cc1cc(Cl)cc(-c2ccc(Oc3ccc(F)cc3)c(C(=O)NCc3ccc(C(=O)O)cc3)c2)c1` [Example 32, 4-((3′-chloro-5′-cyano-4-(4-fluorophenoxy)-[1,1′-biphenyl]-3-carboxamido)methyl)benzoic acid]: 1000 to 10000 nM and less than 100 nM.
